The values that follow come from patent publication US6608004B2, “Substituted 2-aryl-1,2,4-triazine-3,5-di(thi)ones” (priority 1999, dated 2003).

Where two headings read alike, the source gives them in different places. Where only a bound is given, the exact number is not on record here.

For data set [1], the system named is crop plants, such as, for example, barley, wheat, rapeseed, soya and sugar beet. Description: Pre-Emergence Test (Example A), tolerance by crop plants. Format: in vivo. The source says: (§1) Solvent: 5 parts by weight of acetone
(§2) Emulsifier: 1 part by weight of alkylaryl polyglycol ether
(§3) Seeds of the test plants are sown in normal soil.

Data set [2] relates to weeds. Description: Pre-Emergence Test (Example A), activity against weeds. As to conditions: soil sprayed about 24 hours after sowing, rated after three weeks. Format: in vivo.
Text: as §1, §2, §3
0%=no effect (like untreated control)

For data set [3], the system named is crop plants, such as, for example, barley and wheat. Put plainly: Post-Emergence Test (Example B), tolerance by crop plants.
Text: as §1, §2
(§4) After three weeks, the degree of damage to the plants is rated in % damage in comparison to the development of the untreated control.

The subject of data set [4] is weeds. Description: Post-Emergence Test (Example B), activity against weeds. In kind it is in vivo. As to conditions: test plants of a height of 5-15 cm sprayed, rated after three weeks.
Text: as §1, §2, §4

Data set [5] in a line: logP determination by HPLC, reversed-phase column (C 18), EEC Directive 79/831 Annex V.A8. The source says:
(a) Mobile phases for the determination in the acidic range: 0.1% aqueous phosphoric acid, acetonitrile; linear gradient from 10% acetonitrile to 90% acetonitrile—the corresponding measurement results are labelled in Table 1 with ^a).
(b) Mobile phases for the determination in the neutral range: 0.01 molar aqueous phosphate buffer solution, acetonitrile; linear gradient from 10% acetonitrile to 90% acetonitrile—the corresponding measurement results are labelled in Table 1 with ^b).

On to `N#Cc1cc(F)c(-n2ncc(=O)[nH]c2=O)cc1F`, for which the melting point (commonly the temperature of the solid-liquid transition) was over 250 °C.
`CCS(=O)(=O)N(C(=O)CC(C)C)c1cc(-n2ncc(=O)n(C)c2=O)c(F)cc1C#N` [Example 20]: the “tolerance by crop plants” value in data set [1] (in vivo) and in data set [3] (in vivo) was “essentially being tolerated well” each time. Further, the “activity against weeds (degree of damage)” value (shortened to “activity against weeds”) in the data set with weeds [2] and with weeds [4] was “very strong activity” throughout. Besides, in data set [5], the “logP a)” value is “logP = 2.65^a)”.
As for `CCS(=O)(=O)N(C(=O)CCCCCl)c1cc(-n2ncc(=O)n(C)c2=O)c(F)cc1C#N` [Example 22], the “tolerance by crop plants” value in data set [1] (in vivo) and in data set [3] (in vivo) was “essentially being tolerated well” each time. The “activity against weeds” value in the data set with weeds [2] and with weeds [4] was “very strong activity” throughout. In addition, the “logP a)” value in data set [5] is “logP = 2.65^a)”.
Take `CCS(=O)(=O)N(C(=O)c1nn(C)c(OC(F)F)c1C)c1cc(-n2ncc(=O)n(C)c2=O)c(F)cc1C#N` [Example 23]: the “tolerance by crop plants” value in data set [1] (in vivo) and in data set [3] (in vivo) was “essentially being tolerated well” each time. Further, the “activity against weeds” value in the data set on weeds [2] and with weeds [4] was “very strong activity” each time. The “logP a)” value in data set [5] is “m.p.: 187 °C logP = 2.82^a)”.
For `CCS(=O)(=O)N(C(=O)COC)c1cc(-n2ncc(=O)n(C)c2=O)c(F)cc1C#N` [Example 25], the “tolerance by crop plants” value in data set [1] (in vivo) and in data set [3] (in vivo) was “essentially being tolerated well” in each case. The “activity against weeds” value with weeds [2] and in the data set with weeds [4] was “very strong activity” each time. In addition, in data set [5], the “logP a)” value was “logP = 1.82^a)”.
For `CCS(=O)(=O)N(C(=O)c1ccc(F)cc1)c1cc(-n2ncc(=O)n(C)c2=O)c(F)cc1C#N` [Example 26], the “tolerance by crop plants” value in data set [1] (in vivo) and in data set [3] (in vivo) was “essentially being tolerated well” each time. The “activity against weeds” value with weeds [2] and with weeds [4] was “very strong activity” each time. In addition, the “logP a)” value in data set [5] is “m.p.: 123 °C logP = 2.60^a)”.
With `CCS(=O)(=O)N(C(=O)CCCCl)c1cc(-n2ncc(=O)n(C)c2=O)c(F)cc1C#N` [Example 27], the “tolerance by crop plants” value in data set [1] (in vivo) and in data set [3] (in vivo) was “essentially being tolerated well” throughout. In addition, the “activity against weeds” value in the data set with weeds [2] and in the data set on weeds [4] was “very strong activity” throughout. In data set [5], the “logP a)” value is given as “logP = 2.43^a)”.
Turning to `CCS(=O)(=O)N(C(C)=O)c1cc(-n2ncc(=O)n(C)c2=O)c(F)cc1C#N` [Example 28], the “tolerance by crop plants” value in data set [1] (in vivo) and in data set [3] (in vivo) was “essentially being tolerated well” throughout. Also, the “activity against weeds” value with weeds [2] and in the data set on weeds [4] was “very strong activity” each time. For the same compound, in data set [5], the “logP a)” value is given as “logP = 1.79^a)”.
Take `CCS(=O)(=O)N(C(=O)CCCBr)c1cc(-n2ncc(=O)n(C)c2=O)c(F)cc1C#N` [Example 30]: the “tolerance by crop plants” value in data set [1] (in vivo) and in data set [3] (in vivo) was “essentially being tolerated well” each time. In addition, the “activity against weeds” value in the data set on weeds [2] and with weeds [4] was “very strong activity” throughout. Besides, in data set [5], the “logP a)” value was “logP = 2.51^a)”.
Turning to `CCS(=O)(=O)N(C(=O)CCC1CCCCC1)c1cc(-n2ncc(=O)n(C)c2=O)c(F)cc1C#N` [Example 31], the “tolerance by crop plants” value in data set [1] (in vivo) and in data set [3] (in vivo) was “essentially being tolerated well” each time. In addition, the “activity against weeds” value with weeds [2] and with weeds [4] was “very strong activity” each time. In addition, in data set [5], the “logP a)” value is “m.p.: 123 °C logP = 3.66^a)”.
`CCS(=O)(=O)N(C(=O)C=C(C)C)c1cc(-n2ncc(=O)n(C)c2=O)c(F)cc1C#N` [Example 32]: the “tolerance by crop plants” value was “essentially being tolerated well” in data set [1] (pre-emergence, barley, wheat, rapeseed, soya and sugar beet, rated after three weeks); “essentially being tolerated well” in data set [3] (post-emergence, barley and wheat, rated after three weeks). The “activity against weeds” value in the data set on weeds [2] and in the data set with weeds [4] was “very strong activity” in each case. For the same compound, the “logP a)” value in data set [5] (a) acidic range: 0.1% aqueous phosphoric acid, acetonitrile gradient, HPLC C 18, 43° C.) was “m.p.: 150 °C logP = 2.40^a)”.
Take `CCS(=O)(=O)N(C(=O)COc1ccccc1Cl)c1cc(-n2ncc(=O)n(C)c2=O)c(F)cc1C#N` [Example 35]: the “tolerance by crop plants” value in data set [1] (in vivo) and in data set [3] (in vivo) was “essentially being tolerated well” in each case. Moreover, the “activity against weeds” value in the data set on weeds [2] and with weeds [4] was “very strong activity” each time. Also, the “logP a)” value in data set [5] was “m.p.: 220 °C logP = 2.89^a)”.
Regarding `CCS(=O)(=O)N(C(=O)Cc1ccc(F)cc1F)c1cc(-n2ncc(=O)n(C)c2=O)c(F)cc1C#N` [Example 36], the “tolerance by crop plants” value in data set [1] (in vivo) and in data set [3] (in vivo) was “essentially being tolerated well” each time. For the same compound, the “activity against weeds” value with weeds [2] and with weeds [4] was “very strong activity” each time. Also, the “logP a)” value in data set [5] is “m.p.: 210 °C logP = 2.73^a)”.
`CCS(=O)(=O)N(C(=O)Cc1ccc(Cl)cc1)c1cc(-n2ncc(=O)n(C)c2=O)c(F)cc1C#N` [Example 42]: the “tolerance by crop plants” value in data set [1] (in vivo) and in data set [3] (in vivo) was “essentially being tolerated well” throughout. For the same compound, the “activity against weeds” value in the data set with weeds [2] and in the data set on weeds [4] was “very strong activity” in each case. In addition, in data set [5], the “logP a)” value was “m.p.: 222 °C logP = 2.96^a)”.
`CCS(=O)(=O)N(C(=O)COc1ccccc1)c1cc(-n2ncc(=O)n(C)c2=O)c(F)cc1C#N` [Example 43]: the “tolerance by crop plants” value in data set [1] (in vivo) and in data set [3] (in vivo) was “essentially being tolerated well” in each case. In addition, the “activity against weeds” value with weeds [2] and in the data set with weeds [4] was “very strong activity” throughout. Also, in data set [5], the “logP a)” value was “m.p.: 222 °C logP = 2.96^a)”.
For `CCS(=O)(=O)N(C(=O)CCc1ccc(Cl)c(Cl)c1)c1cc(-n2ncc(=O)n(C)c2=O)c(F)cc1C#N` [Example 44], the “tolerance by crop plants” value in data set [1] (in vivo) and in data set [3] (in vivo) was “essentially being tolerated well” each time. In addition, the “activity against weeds” value with weeds [2] and with weeds [4] was “very strong activity” throughout. Also, the “logP a)” value in data set [5] was “m.p.: 142 °C logP = 2.52^a)”.
As to `CCS(=O)(=O)N(C(=O)Cc1ccc(OC)cc1)c1cc(-n2ncc(=O)n(C)c2=O)c(F)cc1C#N` [Example 45], the “tolerance by crop plants” value in data set [1] (in vivo) and in data set [3] (in vivo) was “essentially being tolerated well” throughout. The “activity against weeds” value with weeds [2] and in the data set with weeds [4] was “very strong activity” throughout. Besides, the “logP a)” value in data set [5] was “m.p.: 221 °C logP = 2.58^a)”.
Turning to `CCS(=O)(=O)N(C(=O)CCC1CCCC1)c1cc(-n2ncc(=O)n(C)c2=O)c(F)cc1C#N` [Example 46], the “tolerance by crop plants” value in data set [1] (in vivo) and in data set [3] (in vivo) was “essentially being tolerated well” each time. The “activity against weeds” value in the data set with weeds [2] and with weeds [4] was “very strong activity” throughout. Besides, in data set [5], the “logP a)” value was “m.p.: 143 °C logP = 3.34^a)”.
Consider `CCS(=O)(=O)N(C(=O)C1CCCC1)c1cc(-n2ncc(=O)n(C)c2=O)c(F)cc1C#N` [Example 47], for which the “tolerance by crop plants” value in data set [1] (in vivo) and in data set [3] (in vivo) was “essentially being tolerated well” each time. Moreover, the “activity against weeds” value in the data set on weeds [2] and with weeds [4] was “very strong activity” throughout. Moreover, the “logP a)” value in data set [5] was “m.p.: 93 °C logP = 2.66^a)”.
Regarding `CCS(=O)(=O)N(C(=O)c1ccc(C(C)(C)C)cc1)c1cc(-n2ncc(=O)n(C)c2=O)c(F)cc1C#N` [Example 49], the “tolerance by crop plants” value in data set [1] (in vivo) and in data set [3] (in vivo) was “essentially being tolerated well” throughout. For the same compound, the “activity against weeds” value in the data set on weeds [2] and in the data set on weeds [4] was “very strong activity” throughout. Further, the “logP a)” value in data set [5] was “m.p.: 119 °C logP = 3.57^a)”.
On to `CCOc1ccc(CCC(=O)N(c2cc(-n3ncc(=O)n(C)c3=O)c(F)cc2C#N)S(=O)(=O)CC)cc1` [Example 51], for which the “tolerance by crop plants” value in data set [1] (in vivo) and in data set [3] (in vivo) was “essentially being tolerated well” each time. For the same compound, the “activity against weeds” value in the data set on weeds [2] and with weeds [4] was “very strong activity” in each case. For the same compound, the “logP a)” value in data set [5] was “m.p.: 74 °C logP = 3.22^a)”.
